From patent US11629171B2, “Beta-hairpin peptidomimetics” (POLYPHOR AG, priority 2017, dated 2023)
In brackets after ≈: the same amount, converted by molar mass. Where a SMILES comes first, the peptide text is derived from it. Bridges are numbered along the chain shown (N, C = ends). Roman numbers before positions name the chains, in order. [ ]: non-standard residue; d: D form. Tle = CC(C)(C)[C@H](N)C(=O)O; dDab = NCC[C@@H](N)C(=O)O; Dab = NCC[C@H](N)C(=O)O; Nva = CCC[C@H](N)C(=O)O; Dap = NC[C@H](N)C(=O)O

Columns and labels:
Type in all cases: cell-based
[1] = system: human red blood cells (hRBC); test: Hemolysis; conditions: red cells of human, 1 h, 200
Outline: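 Percent hemolysis relative to 2% Triton X-100 (100%) and PBS/10% water (0%), from blank-corrected OD540 of diluted supernatants. Peptides tested at 200 μg/mL against 20% (v/v) washed human erythrocytes, 1 h, 37° C, shaking at 300 rpm.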

Escherichia coli 926415 = conditions: 926415
Outline: (§1)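 Two-fold peptide dilutions in polysorbate 80-containing (0.002% final) cation-adjusted Mueller-Hinton II broth were inoculated with about 10^6 CFU/mL. The MIC was taken as the lowest concentration, in μg/mL, preventing visible growth at 18-20 hours and 35° C.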

[2] = system: Enterobacter cloacae 848840; conditions: 848840
Outline: as §1

[3] = system: Pseudomonas aeruginosa ATCC 27853; conditions: ATCC 27853
Outline: as §1

[4] = system: Acinetobacter baumannii 872842; conditions: 872842
Outline: as §1

[5] = system: Escherichia coli ATCC 25922; conditions: ATCC 25922
Outline: as §1

[6] = system: Klebsiella pneumoniae 968733; conditions: 968733
Outline: as §1

[7] = system: Acinetobacter baumannii DSM 30008; conditions: DSM 30008
Outline: as §1

[8] = system: Klebsiella pneumoniae SSI #3010; conditions: SSI #3010
Outline: as §1

| Structure (SMILES) | Hemolysis at 200 μg/mL [1] [%] | MIC (Escherichia coli 926415) [µg/mL] | MIC [2] [µg/mL] | MIC [3] [µg/mL] | MIC [4] [µg/mL] | MIC [5] [µg/mL] | MIC [6] [µg/mL] | MIC [7] [µg/mL] | MIC [8] [µg/mL] | Pseudomonas aeruginosa ATCC 27853 MIC [3] [µg/mL] | Escherichia coli ATCC 25922 MIC [5] [µg/mL] | Acinetobacter baumannii DSM 30008 MIC [7] [µg/mL] | Klebsiella pneumoniae SSI #3010 MIC [8] [µg/mL] |
| --- | --- | --- | --- | --- | --- | --- | --- | --- | --- | --- | --- | --- | --- |
| CC(=O)N[C@@H](CCN)C(=O)N[C@H](C(=O)N[C@H]1CSSC[C@@H](C(N)=O)NC(=O)[C@H](C(C)(C)C)NC(=O)[C@H](CO)NC(=O)[C@H](Cc2c[nH]c3ccccc23)NC(=O)[C@H](CCN)NC(=O)[C@@H](CCN)NC(=O)[C@H](CCC(=O)N[C@@H](CCN)C(=O)N[C@H](C(=O)N[C@@H](CN)C(=O)N[C@H]2CCNC(=O)[C@H]([C@@H](C)O)NC(=O)[C@H](CCN)NC(=O)[C@H](CCN)NC(=O)[C@H](CC(C)C)NC(=O)[C@@H](CC(C)C)NC(=O)[C@H](CCN)NC2=O)[C@@H](C)O)NC(=O)[C@H](CN)NC(=O)[C@H](Cc2ccc(O)cc2)NC1=O)C(C)C [Ex. 126] (I: Ac-[Dab]VCY[Dap]E[dDab][Dab]WS[Tle]C-NH2 / II: [Dab]T[Dap][Dab][Dab][dL]L[Dab][Dab]T; disulfide I:3-I:12; amide I:6-II:N; lactam II:4-II:C) | <1 | 0.125 (≈ 0.0515 µM) | 0.5 (≈ 0.206 µM) | 0.25 (≈ 0.103 µM) | 0.25 (≈ 0.103 µM) | 0.125 (≈ 0.0515 µM) | 0.25 (≈ 0.103 µM) | 0.125 (≈ 0.0515 µM) | 0.125 (≈ 0.0515 µM) |  |  |  |  |
| CC(=O)N[C@H](C(=O)N[C@H]1CCN(C)C(=O)CC[C@@H](C(=O)N[C@@H](CO)C(N)=O)NC(=O)[C@H](C(C)C)NC(=O)[C@H](CO)NC(=O)[C@H](Cc2c[nH]c3ccccc23)NC(=O)[C@H](CO)NC(=O)[C@@H](CCN)NC(=O)[C@H](CCC(=O)N[C@@H](CCN)C(=O)N[C@H](C(=O)N[C@@H](CN)C(=O)N[C@H]2CCNC(=O)[C@H]([C@@H](C)O)NC(=O)[C@H](CCN)NC(=O)[C@H](CCN)NC(=O)[C@H](CC(C)C)NC(=O)[C@@H](CC(C)C)NC(=O)[C@H](CCN)NC2=O)[C@@H](C)O)NC(=O)[C@H](CCN)NC(=O)[C@H](Cc2ccc(O)cc2)NC1=O)C(C)C [Ex. 303] | <1 | 1 (≈ 0.413 µM) | 1 (≈ 0.413 µM) |  | 0.5 (≈ 0.207 µM) |  | 1 (≈ 0.413 µM) |  |  | 0.25 | 0.0625 | 0.25 | 0.0625 |
| CC(=O)N[C@H](C(=O)N[C@H]1CSSC[C@@H](C(=O)N[C@@H](CO)C(=O)N[C@H](C)C(N)=O)NC(=O)[C@H](C(C)C)NC(=O)[C@H](CO)NC(=O)[C@H](Cc2c[nH]c3ccccc23)NC(=O)[C@H](CO)NC(=O)[C@@H](CCN)NC(=O)[C@H](CCC(=O)N[C@@H](CCN)C(=O)N[C@H](C(=O)N[C@@H](CN)C(=O)N[C@H]2CCNC(=O)[C@H]([C@@H](C)O)NC(=O)[C@H](CCN)NC(=O)[C@H](CCN)NC(=O)[C@H](CC(C)C)NC(=O)[C@@H](CC(C)C)NC(=O)[C@H](CCN)NC2=O)[C@@H](C)O)NC(=O)[C@H](CCN)NC(=O)[C@H](Cc2ccc(O)cc2)NC1=O)C(C)C [Ex. 378] (I: Ac-VCY[Dab]E[dDab]SWSVCS[dA]-NH2 / II: [Dab]T[Dap][Dab][Dab][dL]L[Dab][Dab]T; disulfide I:2-I:11; amide I:5-II:N; lactam II:4-II:C) | <1 | 0.0625 (≈ 0.0253 µM) | 0.0625 (≈ 0.0253 µM) |  | 0.0625 (≈ 0.0253 µM) |  | 0.125 (≈ 0.0506 µM) |  |  | 0.0625 | 0.0625 | 0.03125 | 0.0625 |
| CC(C)C[C@@H]1NC(=O)[C@@H](CC(C)C)NC(=O)[C@H](CCN)NC(=O)[C@@H](NC(=O)[C@H](CCN)NC(=O)[C@@H](NC(=O)[C@H](CCN)NC(=O)CC[C@@H]2NC(=O)[C@@H](NC(=O)[C@H](Cc3ccc(O)cc3)NC(=O)[C@@H](NC(=O)[C@@H](N)C(C)C)[C@@H](C)O)CSSC[C@@H](C(=O)N[C@H](C(=O)N[C@@H](C)C(=O)N[C@@H](CO)C(=O)O)C(C)(C)C)NC(=O)[C@H](Cc3c[nH]c4ccccc34)NC(=O)[C@H]([C@@H](C)O)NC(=O)[C@@H](CCN)NC2=O)[C@@H](C)O)CCNC(=O)[C@H]([C@@H](C)O)NC(=O)[C@H](CCN)NC(=O)[C@H](CCN)NC1=O [Ex. 186] (I: H-VTYCE[dDab]TWC[Tle]AS-OH / II: [Dab]T[Dab][Dab][Dab][dL]L[Dab][Dab]T; disulfide I:4-I:9; amide I:5-II:N; lactam II:4-II:C) | <1 | 1 (≈ 0.419 µM) | 0.25 (≈ 0.105 µM) | 0.125 (≈ 0.0524 µM) | 0.25 (≈ 0.105 µM) | 0.125 (≈ 0.0524 µM) | 8 (≈ 3.35 µM) | 0.0625 (≈ 0.0262 µM) | 0.125 (≈ 0.0524 µM) |  |  |  |  |
| CC(=O)N[C@H](C(=O)N[C@H]1CSSC[C@@H](C(=O)N[C@@H](CO)C(N)=O)NC(=O)[C@H](C(C)C)NC(=O)[C@H](CO)NC(=O)[C@H](Cc2c[nH]c3ccccc23)NC(=O)[C@H](CCN)NC(=O)[C@@H](CCN)NC(=O)[C@H](CCC(=O)N[C@@H](CCN)C(=O)N[C@H](C(=O)N[C@@H](CN)C(=O)N[C@H]2CCNC(=O)[C@H]([C@@H](C)O)NC(=O)[C@H](CCN)NC(=O)[C@H](CCN)NC(=O)[C@H](CC(C)C)NC(=O)[C@@H](CC(C)C)NC(=O)[C@H](CCN)NC2=O)[C@@H](C)O)NC(=O)[C@H](CO)NC(=O)[C@H](Cc2ccc(O)cc2)NC1=O)C(C)C [Ex. 251] (I: Ac-VCYSE[dDab][Dab]WSVCS-NH2 / II: [Dab]T[Dap][Dab][Dab][dL]L[Dab][Dab]T; disulfide I:2-I:11; amide I:5-II:N; lactam II:4-II:C) | 1 | 0.125 (≈ 0.0521 µM) | 0.125 (≈ 0.0521 µM) | 0.0625 (≈ 0.0261 µM) | 0.03125 (≈ 0.013 µM) | 0.03125 (≈ 0.013 µM) | 0.0625 (≈ 0.0261 µM) | 0.01562 (≈ 0.00651 µM) | 0.03125 (≈ 0.013 µM) |  |  |  |  |
| CC(=O)N[C@H](C(=O)N[C@H]1CSSC[C@@H](C(=O)N[C@@H](CO)C(N)=O)NC(=O)[C@H](C(C)(C)C)NC(=O)[C@H](CO)NC(=O)[C@H](Cc2c[nH]c3ccccc23)NC(=O)[C@H](CCN)NC(=O)[C@@H](CCN)NC(=O)[C@H](CCC(=O)N[C@@H](CCN)C(=O)N[C@H](C(=O)N[C@@H](CN)C(=O)N[C@H]2CCNC(=O)[C@H]([C@@H](C)O)NC(=O)[C@H](CCN)NC(=O)[C@H](CCN)NC(=O)[C@H](CC(C)C)NC(=O)[C@@H](CC(C)C)NC(=O)[C@H](CCN)NC2=O)[C@@H](C)O)NC(=O)[C@H](CO)NC(=O)[C@H](Cc2ccc(O)cc2)NC1=O)C(C)C [Ex. 133] (I: Ac-VCYSE[dDab][Dab]WS[Tle]CS-NH2 / II: [Dab]T[Dap][Dab][Dab][dL]L[Dab][Dab]T; disulfide I:2-I:11; amide I:5-II:N; lactam II:4-II:C) | 2 | 0.0625 (≈ 0.0259 µM) | 0.25 (≈ 0.104 µM) | 0.25 (≈ 0.104 µM) | 0.03125 (≈ 0.013 µM) | 0.03125 (≈ 0.013 µM) | 0.125 (≈ 0.0518 µM) | 0.0625 (≈ 0.0259 µM) | 0.125 (≈ 0.0518 µM) |  |  |  |  |
| CCC[C@@H]1NC(=O)[C@@H](CC(C)C)NC(=O)[C@H](CCN)NC(=O)[C@@H](NC(=O)[C@H](CN)NC(=O)[C@@H](NC(=O)[C@H](CCN)NC(=O)CC[C@@H]2NC(=O)[C@H](CCN)NC(=O)[C@H](Cc3ccc(O)cc3)NC(=O)[C@@H](NC(=O)[C@@H](NC(C)=O)C(C)C)CSSC[C@@H](C(=O)N[C@@H](CO)C(N)=O)NC(=O)[C@H](C(C)C)NC(=O)[C@H](CO)NC(=O)[C@H](Cc3c[nH]c4ccccc34)NC(=O)[C@H](CO)NC(=O)[C@@H](CCN)NC2=O)[C@@H](C)O)CCNC(=O)[C@H]([C@@H](C)O)NC(=O)[C@H](CCN)NC(=O)[C@H](CCN)NC1=O [Ex. 313] (I: Ac-VCY[Dab]E[dDab]SWSVCS-NH2 / II: [Dab]T[Dap][Dab][Dab][dL][Nva][Dab][Dab]T; disulfide I:2-I:11; amide I:5-II:N; lactam II:4-II:C) | <1 | 0.125 (≈ 0.0524 µM) | 0.0625 (≈ 0.0262 µM) |  | 0.125 (≈ 0.0524 µM) |  | 0.125 (≈ 0.0524 µM) |  |  | 0.125 | 0.01562 | 0.03125 | 0.0625 |
